Test results: ChEMBL document CHEMBL4813944 (Eur J Med Chem, 2021)
The source made the active and inactive calls. The calls are words filed in the database; no cut-off is given here.

Experiments:
SH-SY5Y [1] = experiment: Inhibition of salsolinol-induced apoptosis in human SH-SY5Y cells assessed as caspase 3/7 activity at 0.5 uM incubated for 24 hrs using Ac-DEVD-AMC as substrate by fluorescence analysis (reference value: 100%); type: functional; set-up: scale not given: the % may be the effect or the level left
SH-SY5Y [2] = experiment: Inhibition of salsolinol-induced apoptosis in human SH-SY5Y cells assessed as caspase 3/7 activity at 0.05 uM incubated for 24 hrs using Ac-DEVD-AMC as substrate by fluorescence analysis (reference value: 100%); type: functional; set-up: scale not given: the % may be the effect or the level left
SH-SY5Y [3] = experiment: Inhibition of glutamate-induced apoptosis in human SH-SY5Y cells assessed as caspase 3/7 activity at 0.05 uM incubated for 1 hr using Ac-DEVD-AMC as substrate by fluorescence analysis (reference value: 100%); type: functional; set-up: scale not given: the % may be the effect or the level left
SH-SY5Y [4] = experiment: Inhibition of glutamate-induced apoptosis in human SH-SY5Y cells assessed as caspase 3/7 activity at 0.5 uM incubated for 1 hr using Ac-DEVD-AMC as substrate by fluorescence analysis (reference value: 100%); type: functional; set-up: scale not given: the % may be the effect or the level left
[5] = Cytotoxicity against human SH-SY5Y cells assessed as cell viability at 0.1 uM measured after 24 hrs by calcein-AM staining based fluorescence analysis; details: read-out: Activity
SH-SY5Y [6] = experiment: Inhibition of salsolinol-induced apoptosis in human SH-SY5Y cells assessed as caspase 3/7 activity at 0.1 uM incubated for 24 hrs using Ac-DEVD-AMC as substrate by fluorescence analysis (reference value: 100%); type: functional; set-up: scale not given: the % may be the effect or the level left
SH-SY5Y [7] = experiment: Inhibition of glutamate-induced mitochondrial depolarization in human SH-SY5Y cells assessed as recovery of mitochondrial membrane potential at 0.1 to 1 uM incubated for 1 hr by JC10 dye based fluorescence analysis; type: functional, cell-based; details: dose 0.1-1 µM
SH-SY5Y [8] = experiment: Inhibition of glutamate-induced oxidative stress in human SH-SY5Y cells assessed as superoxide radical formation at 0.1 uM measured after 4 hrs by DHE staining based fluorescence spectrophotometry (reference value: 100%); type: functional; set-up: scale not given: the % may be the effect or the level left
SH-SY5Y [9] = experiment: Neuroprotective activity against salsolinol-induced neurotoxicity in human SH-SY5Y cells assessed as cell viability at 1 uM measured after 24 hrs by calcein-AM staining based fluorescence analysis (reference value: 70.49 +/-0.51%); type: functional; details: read-out: Activity
SH-SY5Y [10] = experiment: Inhibition of salsolinol-induced mitochondrial depolarization in human SH-SY5Y cells assessed as recovery of mitochondrial membrane potential at 0.1 uM measured after 24 hrs by JC-1 staining based flow cytometry; type: functional, cell-based
[11] = Cytotoxicity against human SH-SY5Y cells assessed as cell viability at 1 uM measured after 24 hrs by calcein-AM staining based fluorescence analysis; details: read-out: Activity
SH-SY5Y [12] = experiment: Inhibition of Salsolinol-induced oxidative stress in human SH-SY5Y cells assessed as superoxide radical formation at 1 uM measured after 24 hrs by DHE staining based fluorescence spectrophotometry (reference value: 100%); type: functional; set-up: scale not given: the % may be the effect or the level left
[13] = Inhibition of salsolinol-induced mPTP opening in human SH-SY5Y cells assessed as fold change in fluorescence intensity at 1 uM measured after 24 hrs by calcein AM/CoCl2 based fluorescence microscopic analysis (reference value: 0.49 +/-0.02); type: functional
SH-SY5Y [14] = experiment: Neuroprotective activity against salsolinol-induced neurotoxicity in human SH-SY5Y cells assessed as cell viability at 0.1 uM measured after 24 hrs by calcein-AM staining based fluorescence analysis (reference value: 70.49 +/-0.51%); type: functional; details: read-out: Activity
SH-SY5Y [15] = experiment: Neuroprotective activity against glutamate-induced neurotoxicity in human SH-SY5Y cells assessed as cell death at 1 uM measured after 24 hrs by PI staining based assay (reference value: 100%); type: functional
SH-SY5Y [16] = experiment: Inhibition of glutamate-induced apoptosis in human SH-SY5Y cells assessed as reduction in caspase 3/7 activity at 0.1 to 1 uM incubated for 1 hr using Ac-DEVD-AMC as substrate by fluorescence analysis; type: functional; details: dose 0.1-1 µM
SH-SY5Y [17] = experiment: Neuroprotective activity against salsolinol-induced neurotoxicity in human SH-SY5Y cells assessed as cell death at 1 uM measured after 24 hrs by PI staining based analysis (reference value: 100%); type: functional
SH-SY5Y [18] = experiment: Inhibition of salsolinol-induced mitochondrial depolarization in human SH-SY5Y cells assessed as mitochondrial membrane potential at 10 uM measured after 24 hrs by JC-1 staining based flow cytometry (reference value: 45.3 +/-2.09%); type: functional
SH-SY5Y [19] = experiment: Inhibition of salsolinol-induced apoptosis in human SH-SY5Y cells assessed as caspase 3/7 activity at 1 uM incubated for 24 hrs using Ac-DEVD-AMC as substrate by fluorescence analysis (reference value: 100%); type: functional; set-up: scale not given: the % may be the effect or the level left
SH-SY5Y [20] = experiment: Inhibition of glutamate-induced oxidative stress in human SH-SY5Y cells assessed as reduction in superoxide radical formation at 1 uM measured after 4 hrs by DHE staining based fluorescence microscopy; type: functional, cell-based
[21] = Cytotoxicity against human SH-SY5Y cells assessed as cell viability at 10 uM measured after 24 hrs by calcein-AM staining based fluorescence analysis; details: read-out: Activity
SH-SY5Y [22] = experiment: Inhibition of Salsolinol-induced oxidative stress in human SH-SY5Y cells assessed as reduction in superoxide radical formation at 1 uM measured after 24 hrs by DHE staining based fluorescence microscopy; type: functional, cell-based
SH-SY5Y [23] = experiment: Inhibition of Salsolinol-induced oxidative stress in human SH-SY5Y cells assessed as superoxide radical formation at 0.1 uM measured after 24 hrs by DHE staining based fluorescence spectrophotometry (reference value: 100%); type: functional; set-up: scale not given: the % may be the effect or the level left
SH-SY5Y [24] = experiment: Inhibition of salsolinol-induced apoptosis in human SH-SY5Y cells assessed as appearance of necrotic cells at 1 uM measured after 24 hrs by AO/PIstaining based fluorescence microscopy; type: functional, cell-based
SH-SY5Y [25] = experiment: Neuroprotective activity against salsolinol-induced neurotoxicity in human SH-SY5Y cells assessed as cell death at 0.1 uM measured after 24 hrs by PI staining based analysis (reference value: 100%); type: functional
SH-SY5Y [26] = experiment: Inhibition of glutamate-induced oxidative stress in human SH-SY5Y cells assessed as superoxide radical formation at 1 uM measured after 4 hrs by DHE staining based fluorescence spectrophotometry (reference value: 100%); type: functional; set-up: scale not given: the % may be the effect or the level left

SMILES: CC(=O)N[C@@H](CC(=O)O)C(=O)N[C@@H](CCC(=O)O)C(=O)N[C@H](C(=O)N[C@@H](CC(=O)O)C(=O)O)C(C)C
- Activity (SH-SY5Y [1]): 30.8%
- Activity (SH-SY5Y [2]): 36.9%
- Activity (SH-SY5Y [3]): 27.8%
- Activity (SH-SY5Y [4]): 13.7%

SMILES: C=C(C(=O)OCc1c[nH]nn1)[C@@H]1CC[C@]2(COC(C)=O)CC[C@]3(C)[C@H](CC[C@@H]4[C@@]5(C)CC[C@H](OC(C)=O)C(C)(C)[C@@H]5CC[C@]43C)[C@@H]12
- viability at 24 h, 0.1 µM [5]: 97.4%
- Activity (SH-SY5Y [6]): 42.2%
- Activity (SH-SY5Y [7]): inactive
- Activity (SH-SY5Y [8]): 75.7%
- viability at 1 µM (SH-SY5Y [9]): 97.9%
- Activity (SH-SY5Y [10]): Active
- viability at 24 h, 1 µM [11]: 119%
- Activity (SH-SY5Y [12]): 81%
- fold change (FC) [13]: 1.14
- viability at 0.1 µM (SH-SY5Y [14]): 81.4%
- Activity (SH-SY5Y [15]): 85%
- inhibition (INH) (SH-SY5Y [16]): 6%
- Activity (SH-SY5Y [17]): 59.3%
- Activity (SH-SY5Y [18]): inactive
- Activity (SH-SY5Y [19]): 24.3%
- inhibition (SH-SY5Y [20]): Active
- viability at 24 h, 10 µM [21]: 30.5%
- inhibition (SH-SY5Y [22]): Active
- Activity (SH-SY5Y [23]): 83.7%
- Activity (SH-SY5Y [24]): Active
- Activity (SH-SY5Y [25]): 62.3%
- Activity (SH-SY5Y [26]): 72.2%
